We go through nine molecules from ChEMBL document CHEMBL5579819, “Dual-target inhibitors of colchicine binding site for cancer treatment” (Eur J Med Chem, 2024).

Data set [1] concerns MCF7. The data set can be described thus: Cytotoxicity against human MCF7 cells assessed as reduction in cell growth incubated for 72 hrs by MTT assay. It is filed as functional, cell-based. Particulars: MCF7, 72 h.
Data set [2] has as its system HepG2. The data set can be described thus: Cytotoxicity against human HepG2 cells assessed as reduction in cell viability incubated for 24 hrs by MTT assay. It is filed as functional, cell-based. Particulars: HepG2, 24 h.
The subject of data set [3] is MCF7. The data set can be described thus: Cytotoxicity against human MCF7 cells assessed as reduction in cell viability incubated for 24 hrs by MTT assay. It is filed as functional, cell-based. Particulars: MCF7, 24 h. A general note: Tetrazolium dyes change colour on reduction, which living cells bring about.
The test system of data set [4] is HCT-116. The data set can be described thus: Cytotoxicity against human HCT-116 cells assessed as reduction in cell viability incubated fro 24 hrs by MTT assay. It is filed as functional, cell-based. Particulars: HCT-116, 24 h.
In data set [5] the target is Triosephosphate isomerase (Homo sapiens, UniProt P60174). Description: Inhibition of TPI (unknown origin).
Triosephosphate isomerase, sequence (P60174 whole entry): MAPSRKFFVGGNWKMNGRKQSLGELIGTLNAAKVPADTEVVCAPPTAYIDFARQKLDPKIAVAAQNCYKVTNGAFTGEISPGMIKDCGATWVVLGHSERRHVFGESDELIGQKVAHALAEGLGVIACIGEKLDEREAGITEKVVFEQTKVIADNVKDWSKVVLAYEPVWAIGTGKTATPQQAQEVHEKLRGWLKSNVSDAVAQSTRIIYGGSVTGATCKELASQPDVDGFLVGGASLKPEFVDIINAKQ
Data set [6] in a line: Metabolic stability in BALB/c mouse liver microsome assessed as half life incubated for 1 hrs by LC-MS/MS analysis. It is filed as ADME. Particulars: liver microsomes. (Liver microsomes are a subcellular fraction often used to study metabolism.)
Data set [7] in a line: Cmax in BALB/c mouse at 50 mg/kg, po measured for 24 hrs by LC-MS/MS analysis. It is filed as ADME, organism-based. The note with it: in vivo.
Data set [8] in a line: AUC (0 to t) in BALB/c mouse at 50 mg/kg, po measured for 24 hrs by LC-MS/MS analysis. It is filed as ADME, organism-based. The note with it: in vivo.
Data set [9] relates to COLO 205. Description: Cytotoxicity against human COLO 205 cells assessed as reduction in cell growth incubated for 24 hrs by SRB assay. It is filed as functional, cell-based. The note with it: COLO 205, 24 h. (In general: The SRB assay estimates cell density from bound dye.)
For data set [10], the target named is Tubulin. The data set can be described thus: Inhibition of tubulin polymerization (unknown origin) by fluorescence based assay. It is filed as protein-complex assay, Homo sapiens.
Data set [11] relates to SiHa. The data set can be described thus: Cytotoxicity against human SiHa cells assessed as reduction in cell viability measured for 48 hrs by MTT assay. It is filed as functional, cell-based.
The test system of data set [12] is HeLa. The data set can be described thus: Cytotoxicity against human HeLa cells assessed as reduction in cell viability measured for 48 hrs by MTT assay. It is filed as functional, cell-based.
The test system of data set [13] is HepG2. Description: Cytotoxicity against human HepG2 cells assessed as reduction in cell growth incubated for 24 hrs by MTT assay. It is filed as functional, cell-based. Particulars: HepG2, 24 h.
Data set [14] deals with A549. The data set can be described thus: Cytotoxicity against human A549 cells assessed as reduction in cell growth incubated for 24 hrs by MTT assay. It is filed as functional, cell-based. Particulars: A549, 24 h.
Data set [15] has as its system MCF7. Description: Cytotoxicity against human MCF7 cells assessed as cell growth inhibition incubated for 24 hrs by MTT assay. It is filed as functional, cell-based. Particulars: MCF7, 24 h.
A short description of data set [16]: Selectivity index, ratio of CC50 for cytotoxicity against African green monkey Vero cells to IC50 for cytotoxicity against human HepG2 cells. It is filed as toxicity, cell-based. The note with it: Vero cells (CC50) and HepG2 cells (IC50).
For data set [17], the system named is MCF7. Description: Cytotoxicity against human MCF7 cells assessed as reduction in cell growth incubated for 24 hrs by MTT assay. The note with it: MCF7, 24 h.
The test system of data set [18] is MCF7. The data set can be described thus: Cytotoxicity against human MCF7 cells assessed as reduction in cell viability by MTT assay.
Data set [19] has as its target Vascular endothelial growth factor receptor 2 (Homo sapiens, UniProt P35968). The data set can be described thus: Inhibition of VEGFR2 (unknown origin).
Data set [20] deals with Platelet-derived growth factor receptor beta (Homo sapiens, UniProt P09619). Description: Inhibition of human recombinant PDGFRbeta incubated for 40 mins by Kinase-Glo luminescent kinase assay.
Platelet-derived growth factor receptor beta, sequence (P09619 whole entry): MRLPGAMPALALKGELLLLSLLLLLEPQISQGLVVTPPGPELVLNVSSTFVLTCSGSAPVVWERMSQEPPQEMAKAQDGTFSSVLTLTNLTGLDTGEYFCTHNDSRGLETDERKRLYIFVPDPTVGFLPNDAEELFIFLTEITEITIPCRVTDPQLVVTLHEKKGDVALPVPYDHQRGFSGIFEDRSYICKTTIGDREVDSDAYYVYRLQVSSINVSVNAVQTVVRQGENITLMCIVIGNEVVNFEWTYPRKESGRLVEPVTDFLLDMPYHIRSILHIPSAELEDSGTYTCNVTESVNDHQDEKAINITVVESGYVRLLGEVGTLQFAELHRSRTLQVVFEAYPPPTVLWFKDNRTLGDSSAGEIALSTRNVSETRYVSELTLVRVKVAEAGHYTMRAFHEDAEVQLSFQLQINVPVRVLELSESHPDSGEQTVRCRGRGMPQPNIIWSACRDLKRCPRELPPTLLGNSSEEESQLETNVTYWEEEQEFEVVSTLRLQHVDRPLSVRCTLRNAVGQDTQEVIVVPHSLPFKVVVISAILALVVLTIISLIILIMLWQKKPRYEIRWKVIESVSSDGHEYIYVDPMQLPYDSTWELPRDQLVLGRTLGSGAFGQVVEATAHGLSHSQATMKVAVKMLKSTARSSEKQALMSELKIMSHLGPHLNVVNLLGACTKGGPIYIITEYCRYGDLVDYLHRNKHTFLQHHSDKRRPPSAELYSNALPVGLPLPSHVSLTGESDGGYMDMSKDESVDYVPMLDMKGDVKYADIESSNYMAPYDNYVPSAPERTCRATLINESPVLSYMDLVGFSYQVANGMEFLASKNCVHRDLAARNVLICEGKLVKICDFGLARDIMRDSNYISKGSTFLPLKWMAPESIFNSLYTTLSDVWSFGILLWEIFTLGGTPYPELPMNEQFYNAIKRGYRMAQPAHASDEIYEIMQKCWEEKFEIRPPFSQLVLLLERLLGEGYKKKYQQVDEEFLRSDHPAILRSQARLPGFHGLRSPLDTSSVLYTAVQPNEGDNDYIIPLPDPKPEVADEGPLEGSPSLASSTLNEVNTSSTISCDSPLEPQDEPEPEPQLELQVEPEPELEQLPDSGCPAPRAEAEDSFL
The subject of data set [21] is Ishikawa. The data set can be described thus: Antiproliferative activity against human Ishikawa cells assessed as reduction in cell growth incuabted for 48 hrs by MTT assay. It is filed as functional, cell-based.
The test system of data set [22] is A549. Description: Cytotoxicity against human A549 cells. It is filed as functional, cell-based.
In data set [23] the target is Histone deacetylase 2 (Homo sapiens, UniProt Q92769). The data set can be described thus: Inhibition of HDAC2 (unknown origin).
Histone deacetylase 2, sequence (Q92769 whole entry): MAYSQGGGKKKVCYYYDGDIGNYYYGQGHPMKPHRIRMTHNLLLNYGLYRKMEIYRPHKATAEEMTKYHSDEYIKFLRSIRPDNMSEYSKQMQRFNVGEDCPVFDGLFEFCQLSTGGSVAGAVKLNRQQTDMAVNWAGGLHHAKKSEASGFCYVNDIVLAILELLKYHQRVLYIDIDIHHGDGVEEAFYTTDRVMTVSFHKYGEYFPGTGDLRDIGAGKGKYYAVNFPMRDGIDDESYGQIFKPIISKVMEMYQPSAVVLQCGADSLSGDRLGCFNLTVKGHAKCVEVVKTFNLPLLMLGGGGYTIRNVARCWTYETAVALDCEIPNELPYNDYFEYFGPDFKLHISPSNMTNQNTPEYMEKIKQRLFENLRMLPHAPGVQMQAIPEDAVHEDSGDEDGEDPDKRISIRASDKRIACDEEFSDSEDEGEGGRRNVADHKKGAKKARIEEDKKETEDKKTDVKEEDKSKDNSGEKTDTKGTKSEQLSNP
Data set [24] relates to U-937. Description: Cytotoxicity against human U-937 cells. It is filed as functional, cell-based.

Vascular endothelial growth factor receptor 2, sequence (P35968 whole entry): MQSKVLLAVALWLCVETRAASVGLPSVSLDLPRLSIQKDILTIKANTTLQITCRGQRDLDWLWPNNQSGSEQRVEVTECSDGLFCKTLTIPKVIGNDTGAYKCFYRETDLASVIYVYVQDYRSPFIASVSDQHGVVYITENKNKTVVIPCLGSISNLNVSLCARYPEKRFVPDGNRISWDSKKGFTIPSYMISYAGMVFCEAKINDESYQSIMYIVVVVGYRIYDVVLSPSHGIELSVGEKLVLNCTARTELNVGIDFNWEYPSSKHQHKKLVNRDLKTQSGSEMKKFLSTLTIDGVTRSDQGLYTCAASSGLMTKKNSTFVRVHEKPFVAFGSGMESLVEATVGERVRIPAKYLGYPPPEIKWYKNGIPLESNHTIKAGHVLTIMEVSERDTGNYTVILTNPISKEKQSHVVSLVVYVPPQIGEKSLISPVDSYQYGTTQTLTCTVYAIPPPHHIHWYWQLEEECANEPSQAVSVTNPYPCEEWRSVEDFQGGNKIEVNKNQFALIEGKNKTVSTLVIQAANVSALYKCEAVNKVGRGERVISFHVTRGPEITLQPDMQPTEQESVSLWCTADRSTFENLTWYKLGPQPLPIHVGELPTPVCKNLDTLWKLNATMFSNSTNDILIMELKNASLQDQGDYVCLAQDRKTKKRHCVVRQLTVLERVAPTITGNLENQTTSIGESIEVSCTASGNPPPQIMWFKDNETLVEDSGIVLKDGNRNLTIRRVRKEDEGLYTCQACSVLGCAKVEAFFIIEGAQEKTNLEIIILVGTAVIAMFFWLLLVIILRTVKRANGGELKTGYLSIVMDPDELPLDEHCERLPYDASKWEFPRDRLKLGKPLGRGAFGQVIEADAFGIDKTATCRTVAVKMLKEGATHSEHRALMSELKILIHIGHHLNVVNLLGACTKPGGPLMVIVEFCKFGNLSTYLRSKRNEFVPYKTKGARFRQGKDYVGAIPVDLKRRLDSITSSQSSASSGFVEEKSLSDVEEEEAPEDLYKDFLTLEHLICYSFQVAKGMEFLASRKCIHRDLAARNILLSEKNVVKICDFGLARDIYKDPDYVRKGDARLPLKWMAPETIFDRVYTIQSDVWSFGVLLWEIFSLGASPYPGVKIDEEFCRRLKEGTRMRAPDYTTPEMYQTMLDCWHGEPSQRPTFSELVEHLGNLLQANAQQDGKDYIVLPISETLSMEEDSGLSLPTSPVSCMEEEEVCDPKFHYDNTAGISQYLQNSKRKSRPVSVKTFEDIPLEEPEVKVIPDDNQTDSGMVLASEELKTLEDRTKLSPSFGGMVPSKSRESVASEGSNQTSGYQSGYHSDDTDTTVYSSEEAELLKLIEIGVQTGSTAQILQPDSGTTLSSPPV

Turning to `Nc1ccccc1NC(=O)c1ccc(CN2CCC/C(=C\c3cccc(Cl)c3)C2=O)cc1`, in [1], the IC50 (as a rule, the point on the concentration scale where inhibition reaches its midpoint) was found to be 2100 nM.

Regarding `CCOCCSc1nc(-c2ccccc2Cl)nn1CCOCC`, the IC50 came to 1300 nM in [2], 5.16 µM in [3] and 3.36 µM in [4].

On to `CCOC(=O)Nc1nc2ccc(-c3cc(Cc4n[nH]c(=O)c5ccccc45)ccc3F)cc2[nH]1`, for which, in [5], the midpoint of inhibition, the IC50, lay at 990 nM. Further, in [6], the half-life (commonly the time in which the quantity being followed falls by half) was 257 min. The Cmax – broadly, the highest concentration seen after dosing – in [7] was found to be 12200 ng/mL. For the same molecule, the AUC(0-t) (commonly exposure summed from dosing to a finite time, without extrapolation to infinity) at 24 h in [8] was found to be 87600 ng·h/mL.

For the molecule `COc1cc(OC)c(/C=C2/C(=O)Nc3cc(Cl)ccc32)c(OC)c1`, the results for the IC50 in [9] and in data set [10] were 200 nM and 1660 nM, respectively.

Regarding `COc1cc2oc(C(=O)c3cc(OC)c(OC)c(OC)c3)cc2cc1/C=C/C(=O)O`, the IC50 stood at 1100 nM in data set [11] and 1060 nM in data set [12].

For the molecule `CN(C)c1ccc(/C=N/c2c(N)n(C)c(=O)[nH]c2=O)cc1`, the IC50 in data set [13] came out at 1070 nM; in [14] it was 1530 nM; in data set [15], 3.17 µM; in [5] it was 1900 nM. Besides, the selectivity ratio in [16] came out at 3.74.

For `O=C1Nc2ccccc2/C1=C/c1ccc(OCC(=O)c2ccc(Br)cc2)cc1`, the IC50 in data set [17] is 14.8 µM; in data set [5] it was 7990 nM; in data set [18] it was 14.8 µM; in data set [19], 5.75 µM; in data set [20] it was 3.18 µM.

As for `O=c1cc(-c2ccc(F)cc2)oc2cc(-c3ccoc3)ccc12`, the IC50 worked out at 1400 nM in [5] and 1000 nM in [21].

`COc1cc2c(cc1OCc1ccc(C(=O)Nc3ccccc3N)cc1)CC[C@@H]1[C@@H]2CC[C@]2(C)[C@@H](O)CC[C@@H]12`: the IC50 in data set [22] came out at 1780 nM; in data set [23], 60 nM; in data set [24] it was 371 nM.
